Measurements reported in ChEMBL document CHEMBL1275577, “Study of the in vitro activities of rifaximin and comparator agents against 536 anaerobic intestinal bacteria from the perspective of potential utility in pathology involving bowel flora” (Antimicrob Agents Chemother, 2009).
In brackets after ≈: the same amount, converted by molar mass.

What was measured:
Type in all cases: functional
Cutibacterium acnes = test: Antimicrobial activity against Propionibacterium acnes by Wadsworth agar dilution method
[1] = tested on: Lactobacillus catenaformis; test: Antimicrobial activity against Lactobacillus catenaformis by Wadsworth agar dilution method; settings: Eggerthia catenaformis
Anaerococcus prevotii = test: Antimicrobial activity against Anaerococcus prevotii by Wadsworth agar dilution method
[2] = tested on: Enterocloster clostridioformis; test: Antimicrobial activity against Clostridium clostridioforme by Wadsworth agar dilution method
[3] = tested on: Ruminococcus flavefaciens; test: Antimicrobial activity against Ruminococcus flavefaciens by Wadsworth agar dilution method
Holdemania filiformis = test: Antimicrobial activity against Holdemania filiformis by Wadsworth agar dilution method
Clostridium leptum = test: Antimicrobial activity against Clostridium leptum by Wadsworth agar dilution method
Fusobacterium mortiferum [4] = test: Antimicrobial activity against Fusobacterium mortiferum by Wadsworth agar dilution method in presence of beta-lactamase inhibitor Sulbactam
Ruminococcus lactaris = test: Antimicrobial activity against Ruminococcus lactaris by Wadsworth agar dilution method
Eubacterium callanderi = test: Antimicrobial activity against Eubacterium callanderi by Wadsworth agar dilution method
Clostridium sporogenes = test: Antimicrobial activity against Clostridium sporogenes by Wadsworth agar dilution method
Hoylesella loescheii = test: Antimicrobial activity against Prevotella loescheii by Wadsworth agar dilution method
Clostridium subterminale = test: Antimicrobial activity against Clostridium subterminale by Wadsworth agar dilution method
Lactobacillus sp. = test: Antimicrobial activity against Lactobacillus sp. by Wadsworth agar dilution method
Prevotella disiens = test: Antimicrobial activity against Prevotella disiens by Wadsworth agar dilution method
[5] = tested on: Paeniclostridium sordellii; test: Antimicrobial activity against Clostridium sordellii by Wadsworth agar dilution method; settings: Paraclostridium sordellii
Bifidobacterium dentium = test: Antimicrobial activity against Bifidobacterium dentium by Wadsworth agar dilution method
Actinomyces viscosus = test: Antimicrobial activity against Actinomyces viscosus by Wadsworth agar dilution method
Anaerococcus tetradius = test: Antimicrobial activity against Anaerococcus tetradius by Wadsworth agar dilution method
Fusobacterium mortiferum [6] = test: Antimicrobial activity against Clostridium rectum by Wadsworth agar dilution method
Blautia luti = test: Antimicrobial activity against Ruminococcus luti by Wadsworth agar dilution method
[7] = tested on: Peptoniphilus asaccharolyticus; test: Antimicrobial activity against Peptoniphilus asaccharolyticus by Wadsworth agar dilution method
Bacteroides nordii = test: Antimicrobial activity against Bacteroides nordii by Wadsworth agar dilution method
Ruminococcus gnavus = test: Antimicrobial activity against Ruminococcus gnavus by Wadsworth agar dilution method; settings: Mediterraneibacter gnavus
Desulfovibrio sp. = test: Antimicrobial activity against Desulfovibrio sp. by Wadsworth agar dilution method
[Clostridium] innocuum = Antimicrobial activity against Clostridium innocuum by Wadsworth agar dilution method
Clostridium bartlettii = test: Antimicrobial activity against Clostridium bartlettii by Wadsworth agar dilution method; settings: Intestinibacter bartlettii
Bacteroides caccae = test: Antimicrobial activity against Bacteroides caccae by Wadsworth agar dilution method
Clostridium cocleatum = test: Antimicrobial activity against Clostridium cocleatum by Wadsworth agar dilution method; settings: Thomasclavelia cocleata
Porphyromonas = test: Antimicrobial activity against Porphyromonas sp. by Wadsworth agar dilution method
Ruminococcus obeum = test: Antimicrobial activity against Ruminococcus obeum by Wadsworth agar dilution method; settings: Blautia obeum
[8] = tested on: Bifidobacterium adolescentis; test: Antimicrobial activity against Bifidobacterium adolescentis by Wadsworth agar dilution method
[9] = tested on: Limosilactobacillus fermentum; test: Antimicrobial activity against Lactobacillus fermentum by Wadsworth agar dilution method
Eubacterium limosum = test: Antimicrobial activity against Eubacterium limosum by Wadsworth agar dilution method
Desulfovibrio vulgaris = test: Antimicrobial activity against Desulfovibrio vulgaris by Wadsworth agar dilution method; settings: Nitratidesulfovibrio vulgaris
Parvimonas micra = test: Antimicrobial activity against Peptostreptococcus micros by Wadsworth agar dilution method
[10] = tested on: Coprobacillus cateniformis; test: Antimicrobial activity against Coprobacillus cateniformis by Wadsworth agar dilution method
Schaalia meyeri = test: Antimicrobial activity against Actinomyces meyeri by Wadsworth agar dilution method
Clostridium fallax = test: Antimicrobial activity against Clostridium fallax by Wadsworth agar dilution method
[11] = tested on: Peptostreptococcus anaerobius; test: Antimicrobial activity against Peptostreptococcus anaerobius by Wadsworth agar dilution method
Bifidobacterium breve = test: Antimicrobial activity against Bifidobacterium breve by Wadsworth agar dilution method
[12] = tested on: Clostridium aminobutyricum; test: Antimicrobial activity against Clostridium aminobutyricum by Wadsworth agar dilution method
Eubacterium cylindroides = test: Antimicrobial activity against Eubacterium cylindroides by Wadsworth agar dilution method; settings: Faecalitalea cylindroides
Clostridium spiroforme = test: Antimicrobial activity against Clostridium spiroforme by Wadsworth agar dilution method; settings: Thomasclavelia spiroformis
Fusobacterium nucleatum = test: Antimicrobial activity against Fusobacterium nucleatum by Wadsworth agar dilution method
Clostridium glycolicum = test: Antimicrobial activity against Clostridium glycolicum by Wadsworth agar dilution method; settings: Terrisporobacter glycolicus
Bilophila wadsworthia = test: Antimicrobial activity against Bilophila wadsworthia by Wadsworth agar dilution method in presence of 1% pyruvic acid

## CO[C@H]1/C=C/O[C@@]2(C)Oc3c(C)c(O)c4c(O)c(c5c(nc6cc(C)ccn65)c4c3C2=O)NC(=O)/C(C)=C\C=C\[C@H](C)[C@H](O)[C@@H](C)[C@@H](O)[C@@H](C)[C@H](OC(C)=O)[C@@H]1C [RIFAXIMIN]
Cutibacterium acnes
  MIC50: 0.5 µg/mL (≈ 0.636 µM)
  MIC90: > 1020 µg/mL
[1]
  MIC50: 0.5 µg/mL (≈ 0.636 µM)
  MIC90: > 1020 µg/mL
Anaerococcus prevotii
  MIC: 0.25 µg/mL (≈ 0.318 µM)
  MIC50: 0.25 µg/mL (≈ 0.318 µM)
  MIC90: 4 µg/mL (≈ 5.09 µM)
[2]
  MIC50: 0.25 µg/mL (≈ 0.318 µM)
  MIC90: 0.25 µg/mL (≈ 0.318 µM)
[3]
  MIC: 0.25 µg/mL (≈ 0.318 µM)
  MIC50: 0.25 µg/mL (≈ 0.318 µM)
  MIC90: 4 µg/mL (≈ 5.09 µM)
Holdemania filiformis
  MIC50: 0.5 µg/mL (≈ 0.636 µM)
  MIC90: > 1020 µg/mL
Clostridium leptum
  MIC: 0.25 µg/mL (≈ 0.318 µM)
  MIC50: 0.25 µg/mL (≈ 0.318 µM)
  MIC90: > 1020 µg/mL
Fusobacterium mortiferum [4]
  MIC50: 16 µg/mL
  MIC90: > 1020 µg/mL
Ruminococcus lactaris
  MIC: 0.25 µg/mL (≈ 0.318 µM)
  MIC50: 0.25 µg/mL (≈ 0.318 µM)
  MIC90: 4 µg/mL (≈ 5.09 µM)
Eubacterium callanderi
  MIC50: 0.5 µg/mL (≈ 0.636 µM)
  MIC90: > 1020 µg/mL
Clostridium sporogenes
  MIC: 0.25 µg/mL (≈ 0.318 µM)
  MIC50: 0.25 µg/mL (≈ 0.318 µM)
  MIC90: > 1020 µg/mL
Hoylesella loescheii
  MIC: 0.25 µg/mL (≈ 0.318 µM)
  MIC50: 0.25 µg/mL (≈ 0.318 µM)
  MIC90: 0.5 µg/mL (≈ 0.636 µM)
Clostridium subterminale
  MIC: 0.25 µg/mL (≈ 0.318 µM)
  MIC50: 0.25 µg/mL (≈ 0.318 µM)
  MIC90: > 1020 µg/mL
Lactobacillus sp.
  MIC50: 0.5 µg/mL (≈ 0.636 µM)
  MIC90: > 1020 µg/mL
Prevotella disiens
  MIC: 0.25 µg/mL (≈ 0.318 µM)
  MIC50: 0.25 µg/mL (≈ 0.318 µM)
  MIC90: 0.5 µg/mL (≈ 0.636 µM)
[5]
  MIC: 0.25 µg/mL (≈ 0.318 µM)
  MIC50: 0.25 µg/mL (≈ 0.318 µM)
  MIC90: > 1020 µg/mL
Bifidobacterium dentium
  MIC50: 0.5 µg/mL (≈ 0.636 µM)
  MIC90: > 1020 µg/mL
Actinomyces viscosus
  MIC50: 0.5 µg/mL (≈ 0.636 µM)
  MIC90: > 1020 µg/mL
Anaerococcus tetradius
  MIC: 0.25 µg/mL (≈ 0.318 µM)
  MIC50: 0.25 µg/mL (≈ 0.318 µM)
  MIC90: 4 µg/mL (≈ 5.09 µM)
Fusobacterium mortiferum [6]
  MIC: 0.25 µg/mL (≈ 0.318 µM)
  MIC50: 0.25 µg/mL (≈ 0.318 µM)
  MIC90: > 1020 µg/mL
Blautia luti
  MIC: 0.25 µg/mL (≈ 0.318 µM)
  MIC50: 0.25 µg/mL (≈ 0.318 µM)
  MIC90: 4 µg/mL (≈ 5.09 µM)
[7]
  MIC: 0.25 µg/mL (≈ 0.318 µM)
  MIC50: 0.25 µg/mL (≈ 0.318 µM)
  MIC90: 4 µg/mL (≈ 5.09 µM)
Bacteroides nordii
  MIC: 0.25 µg/mL (≈ 0.318 µM)
  MIC50: 0.25 µg/mL (≈ 0.318 µM)
  MIC90: 0.5 µg/mL (≈ 0.636 µM)
Ruminococcus gnavus
  MIC: 0.25 µg/mL (≈ 0.318 µM)
  MIC50: 0.25 µg/mL (≈ 0.318 µM)
  MIC90: 4 µg/mL (≈ 5.09 µM)
Desulfovibrio sp.
  MIC50: 16 µg/mL (≈ 20.4 µM)
  MIC90: 332 µg/mL (≈ 422 µM)
[Clostridium] innocuum
  MIC50: > 1020 µg/mL
  MIC90: > 1020 µg/mL
Clostridium bartlettii
  MIC: 0.25 µg/mL (≈ 0.318 µM)
  MIC50: 0.25 µg/mL (≈ 0.318 µM)
  MIC90: > 1020 µg/mL
Bacteroides caccae
  MIC: 0.25 µg/mL (≈ 0.318 µM)
  MIC50: 0.25 µg/mL (≈ 0.318 µM)
  MIC90: > 0.5 µg/mL
Clostridium cocleatum
  MIC: 0.25 µg/mL (≈ 0.318 µM)
  MIC50: 0.25 µg/mL (≈ 0.318 µM)
  MIC90: > 1020 µg/mL
Porphyromonas
  MIC: 0.25 µg/mL (≈ 0.318 µM)
  MIC50: 0.25 µg/mL (≈ 0.318 µM)
  MIC90: 0.5 µg/mL (≈ 0.636 µM)
Ruminococcus obeum
  MIC: 0.25 µg/mL (≈ 0.318 µM)
  MIC50: 0.25 µg/mL (≈ 0.318 µM)
  MIC90: 4 µg/mL (≈ 5.09 µM)
[8]
  MIC50: 0.5 µg/mL (≈ 0.636 µM)
  MIC90: > 1020 µg/mL
[9]
  MIC50: 0.5 µg/mL (≈ 0.636 µM)
  MIC90: > 1020 µg/mL
Eubacterium limosum
  MIC50: 0.5 µg/mL (≈ 0.636 µM)
  MIC90: > 1020 µg/mL
Desulfovibrio vulgaris
  MIC50: 16 µg/mL (≈ 20.4 µM)
  MIC90: 332 µg/mL (≈ 422 µM)
Parvimonas micra
  MIC: 0.25 µg/mL (≈ 0.318 µM)
  MIC50: 0.25 µg/mL (≈ 0.318 µM)
  MIC90: 4 µg/mL (≈ 5.09 µM)
[10]
  MIC50: 0.5 µg/mL (≈ 0.636 µM)
  MIC90: > 1020 µg/mL
Schaalia meyeri
  MIC50: 0.5 µg/mL (≈ 0.636 µM)
  MIC90: > 1020 µg/mL
Clostridium fallax
  MIC: 0.25 µg/mL (≈ 0.318 µM)
  MIC50: 0.25 µg/mL (≈ 0.318 µM)
  MIC90: > 1020 µg/mL
[11]
  MIC: 0.25 µg/mL (≈ 0.318 µM)
  MIC50: 0.25 µg/mL (≈ 0.318 µM)
  MIC90: 4 µg/mL (≈ 5.09 µM)
Bifidobacterium breve
  MIC50: 0.5 µg/mL (≈ 0.636 µM)
  MIC90: > 1020 µg/mL
[12]
  MIC: 0.25 µg/mL (≈ 0.318 µM)
  MIC50: 0.25 µg/mL (≈ 0.318 µM)
  MIC90: > 1020 µg/mL
Eubacterium cylindroides
  MIC50: 0.5 µg/mL (≈ 0.636 µM)
  MIC90: > 1020 µg/mL
Clostridium spiroforme
  MIC: 0.25 µg/mL (≈ 0.318 µM)
  MIC50: 0.25 µg/mL (≈ 0.318 µM)
  MIC90: > 1020 µg/mL
Fusobacterium nucleatum
  MIC50: 2 µg/mL (≈ 2.54 µM)
  MIC90: 8 µg/mL (≈ 10.2 µM)
Clostridium glycolicum
  MIC: 0.25 µg/mL (≈ 0.318 µM)
  MIC50: 0.25 µg/mL (≈ 0.318 µM)
  MIC90: > 1020 µg/mL
Bilophila wadsworthia
  MIC: 0.25 µg/mL
  MIC50: 0.25 µg/mL
  MIC90: 0.5 µg/mL
